In article doi:10.1101/2023.09.29.560149v2 (biorxiv, 2024):

Columns and labels:
in vitro [1] = conditions: african green monkey, vero cells
in vitro [2] = conditions: hamster, bhk-21 cells
Chikungunya virus CHIKV = test: microbe, parasite or virus in culture; conditions: Vero, 24 h, read-out: CHIKV EC50 (µM)
Sindbis virus SINV = test: microbe, parasite or virus in culture; conditions: Vero, 24 h, read-out: SINV EC50 (µM)

| Structure (SMILES) | CC50 at 24 h (in vitro [1]) [µM] | CC50 at 24 h (in vitro [2]) [µM] | EC50 (Chikungunya virus CHIKV) [µM] | EC50 (Sindbis virus SINV) [µM] |
| --- | --- | --- | --- | --- |
| C[C@H]1CC[C@]2(NC1)O[C@H]1C[C@H]3[C@@H]4CC[C@H]5C[C@@H](O)CC[C@]5(C)[C@H]4CC[C@]3(C)[C@H]1[C@@H]2C [Tomatidine] | 17.2 | 23.8 | 5.35 | 2.47 |
| O=C1Nc2ccc(Cl)cc2[C@@](C#CC2CC2)(C(F)(F)F)O1 [efavirenz] | 53.6 | 40.9 | 1.33 | 0.72 |
